Test results reported in PubChem BioAssay (NCI).
Several values for one entry are separate records, joined by “and”; a condition that tells them apart may be missing. Identical values can stand only once.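 Interpolation was linear, between the two tested concentrations surrounding the appropriate level; five concentrations were tested over 48 hours in 96-well plates. GI50 = concentration required for 50% inhibition of growth. At the TGI there is no net growth.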

test system: MCF7 breast; assay: NCI anticancer screen, dose series, 48 h

Row | Compound | TGI
1 | CCOC(=O)C(NC(=O)c1ccco1)(Nc1nc2ccc(OCC)cc2s1)C(F)(F)F (stereo not drawn) | 78.8 µM
2 | CCC(C)C1=C(OC(C)=O)[N+]2([O-])Oc3ccc(-c4c(OC(C)=O)c(OC(C)=O)c(-c5ccc(OC(C)=O)cc5)c(OC(C)=O)c4OC(C)=O)cc3OC2(C(C)CC)C(=O)N1OC(C)=O (stereo not drawn) | > 50 µM
3 | O=C(O)C1C2CCC(O2)C1C(=O)Nc1cccc2cccnc12 (stereo not drawn) | > 100 µM
4 | COc1cccc2c1Cc1cc(-c3ccccc3)[n+](C)n1-2 | 5.53 µM
5 | O=C(C[n+]1ccc2ccccc2c1)c1ccc2ccc3ccccc3c2c1 | 11.3 µM
6 | NCCCCc1cc(O)c2c(c1O)C(=O)c1ccccc1C2=O | 27.4 µM
7 | Cc1ccccc1C(=O)N/N=C/c1ccc(Sc2nccn2C)c([N+](=O)[O-])c1 | > 100 µM
8 | CCn1c(-c2ccc(N=NNc3ccc(-c4n[nH]c(=S)n4CC)cc3)cc2)n[nH]c1=S | 29.2 µM
9 | CC(=O)C1=C(C)N(c2ccc(C)cc2)C2(O)C=CC(=O)C3C(=O)N(c4ccccc4)C(=O)C132 (stereo not drawn) | 53.7 µM
10 | COc1ccc2c(c1)[nH]c1c(/C=C/c3ccccc3)nccc12 | 41.6 µM
11 | Clc1cc2c(cc1Cl)CC(NCCN1CCCC1)CC2 (stereo not drawn) | 31 µM
12 | NCCSC(c1ccccc1)c1ccccc1 | 38 µM
13 | COc1nc(C#CC2(O)CCCCC2)nc(OC)n1 | 19.4 µM
14 | C[C@H](CCC(=O)O)[C@H]1CC[C@@]2(C)[C@@H]3C(=O)C[C@H]4C(C)(C)[C@@H](O)CC[C@]4(C)[C@H]3C(=O)C[C@]12C | > 100 µM

test system: UO-31 renal; assay: NCI anticancer screen, dose series, 48 h

Row | Compound | TGI | GI50
15 | CCOC(=O)C1=NN(c2ccc(C)cc2)C2=CC(C)=NN(C)C(=S)N21 | > 100 µM | 
16 | O=C(c1cccs1)N(C(=S)OC12CC3CC(CC(C3)C1)C2)c1ccccc1 | 70.3 µM | 
17 | C(=N\NC1=NCCN1)/c1ccc(-c2cn3cc(/C=N/NC4=NCCN4)ccc3n2)cc1 | 99.8 µM | 
18 | Nc1ccccc1S(=O)(=O)c1ccccc1 | > 100 µM | 
19 | Cc1c(N2C(=O)CS(=O)(=O)C2c2cccc(Oc3ccccc3)c2)c(=O)n(-c2ccccc2)n1C (stereo not drawn) | > 100 µM | 
20 | COc1cc2c(ccc3c4cc(OC)c(OC)cc4c[n+](C)c23)cc1O | > 75 µM | 
21 | CNC(=O)OCc1c(CO)nc(SC)n1C | > 100 µM | 
22 | CN(C)CC(CC1=C(CC(CN(C)C)N(C)C)CCC1)N(C)C (stereo not drawn) | > 100 µM | 
23 | CCC1CN(C(=O)c2ccccc2)C(Cc2c[nH]c3ccccc23)C(=O)C1CC(=O)OC (stereo not drawn) | > 100 µM | 
24 | CC12CC3OC(=O)C1COC14OC5(C2C1=O)C(O)(CCC1C4CC(O)C2(O)CC=CC(=O)C12C)C(=O)OC35C (stereo not drawn) | > 100 µM | 
25 | NC(=O)c1c(NC(=O)c2ccccn2)sc2c1CCC(=O)C2 | 6.63 µM | 1.82 µM
26 | CCOC(=O)C(NC(=O)c1ccco1)(Nc1nc2ccc(OCC)cc2s1)C(F)(F)F (stereo not drawn) | > 100 µM | 
27 | CCC(C)C1=C(OC(C)=O)[N+]2([O-])Oc3ccc(-c4c(OC(C)=O)c(OC(C)=O)c(-c5ccc(OC(C)=O)cc5)c(OC(C)=O)c4OC(C)=O)cc3OC2(C(C)CC)C(=O)N1OC(C)=O (stereo not drawn) | > 50 µM | 
28 | O=C(O)C1C2CCC(O2)C1C(=O)Nc1cccc2cccnc12 (stereo not drawn) | > 100 µM | 
29 | COc1cccc2c1Cc1cc(-c3ccccc3)[n+](C)n1-2 | 90.8 µM | 
30 | O=C(OCN1C(=O)C2C3C=CC(C2C1=O)C1C2C(=O)N(COC(=O)C4CCCN4)C(=O)C2C31)C1CCCN1 (stereo not drawn) | > 100 µM | 
31 | O=C(C[n+]1ccc2ccccc2c1)c1ccc2ccc3ccccc3c2c1 | 17.6 µM | 
32 | NCCCCc1cc(O)c2c(c1O)C(=O)c1ccccc1C2=O | 20.3 µM | 
33 | Cc1ccccc1C(=O)N/N=C/c1ccc(Sc2nccn2C)c([N+](=O)[O-])c1 | > 100 µM | 
34 | CCn1c(-c2ccc(N=NNc3ccc(-c4n[nH]c(=S)n4CC)cc3)cc2)n[nH]c1=S | 5.62 µM | 
35 | CC(=O)C1=C(C)N(c2ccc(C)cc2)C2(O)C=CC(=O)C3C(=O)N(c4ccccc4)C(=O)C132 (stereo not drawn) | 24.6 µM | 
36 | COc1ccc2c(c1)[nH]c1c(/C=C/c3ccccc3)nccc12 | 24 µM | 
37 | Clc1cc2c(cc1Cl)CC(NCCN1CCCC1)CC2 (stereo not drawn) | 23.6 µM | 
38 | [N-]=[N+]=CC(=O)c1ccccc1C#CCCc1ccccc1 | > 100 µM | 
39 | CCN(CC(=O)O)C(=O)c1cccnc1 | > 100 µM | 
40 | NCCSC(c1ccccc1)c1ccccc1 | 33.2 µM | 
41 | CCCCCCCCC/C=C/C=C/C(=O)NCC(=O)NC1C(O)C(O)C(Nc2ncnc3nc[nH]c23)OC1C(O)CO (stereo not drawn) | 0.0177 µM and 0.0219 µM | 0.00344 µM
42 | COc1nc(C#CC2(O)CCCCC2)nc(OC)n1 | 15.1 µM | 
43 | C[C@H](CCC(=O)O)[C@H]1CC[C@@]2(C)[C@@H]3C(=O)C[C@H]4C(C)(C)[C@@H](O)CC[C@]4(C)[C@H]3C(=O)C[C@]12C | 30.2 µM | 

test system: SR leukemia; assay: NCI anticancer screen, dose series, 48 h

Row | Compound | TGI | GI50
44 | CCOC(=O)C1=NN(c2ccc(C)cc2)C2=CC(C)=NN(C)C(=S)N21 | > 100 µM | 
45 | O=C(c1cccs1)N(C(=S)OC12CC3CC(CC(C3)C1)C2)c1ccccc1 | > 100 µM | 
46 | C(=N\NC1=NCCN1)/c1ccc(-c2cn3cc(/C=N/NC4=NCCN4)ccc3n2)cc1 | 13.5 µM | 
47 | CC1CC[C@@]2(OC1)OC1C[C@H]3[C@@H]4CC=C5CC(OC6OC(CO)C(OC7OC(CO)C(O)C(OC8OCC(O)C(O)C8O)C7OC7OC(CO)C(O)C(O)C7O)C(O)C6O)CCC5(C)[C@H]4CCC3(C)C1[C@@H]2C (stereo partly drawn) | 17.7 µM | 
48 | Nc1ccccc1S(=O)(=O)c1ccccc1 | > 100 µM | 
49 | CCC1CN(C(=O)c2ccccc2)C(Cc2c[nH]c3ccccc23)C(=O)C1CC(=O)OC (stereo not drawn) | > 100 µM | 
50 | NC(=O)c1c(NC(=O)c2ccccn2)sc2c1CCC(=O)C2 | > 100 µM | 0.832 µM
51 | COc1ccc(C(=O)/C=C/c2cccc([N+](=O)[O-])c2)c(OC)c1 | 4.02 µM | 0.678 µM
52 | CCOC(=O)C(NC(=O)c1ccco1)(Nc1nc2ccc(OCC)cc2s1)C(F)(F)F (stereo not drawn) | 88.5 µM | 
53 | CCC(C)C1=C(OC(C)=O)[N+]2([O-])Oc3ccc(-c4c(OC(C)=O)c(OC(C)=O)c(-c5ccc(OC(C)=O)cc5)c(OC(C)=O)c4OC(C)=O)cc3OC2(C(C)CC)C(=O)N1OC(C)=O (stereo not drawn) | 30.6 µM | 
54 | O=C(O)C1C2CCC(O2)C1C(=O)Nc1cccc2cccnc12 (stereo not drawn) | > 100 µM | 
55 | COc1cccc2c1Cc1cc(-c3ccccc3)[n+](C)n1-2 | > 100 µM | 
56 | O=C(OCN1C(=O)C2C3C=CC(C2C1=O)C1C2C(=O)N(COC(=O)C4CCCN4)C(=O)C2C31)C1CCCN1 (stereo not drawn) | 26.4 µM | 
57 | O=C(C[n+]1ccc2ccccc2c1)c1ccc2ccc3ccccc3c2c1 | 2.15 µM | 
58 | NCCCCc1cc(O)c2c(c1O)C(=O)c1ccccc1C2=O | 19.8 µM | 
59 | Cc1ccccc1C(=O)N/N=C/c1ccc(Sc2nccn2C)c([N+](=O)[O-])c1 | > 100 µM | 
60 | CCn1c(-c2ccc(N=NNc3ccc(-c4n[nH]c(=S)n4CC)cc3)cc2)n[nH]c1=S | > 100 µM | 
61 | CC(=O)C1=C(C)N(c2ccc(C)cc2)C2(O)C=CC(=O)C3C(=O)N(c4ccccc4)C(=O)C132 (stereo not drawn) | 23.7 µM | 
62 | COc1ccc2c(c1)[nH]c1c(/C=C/c3ccccc3)nccc12 | > 100 µM | 
63 | Clc1cc2c(cc1Cl)CC(NCCN1CCCC1)CC2 (stereo not drawn) | 38 µM | 
64 | [N-]=[N+]=CC(=O)c1ccccc1C#CCCc1ccccc1 | > 100 µM | 
65 | CCN(CC(=O)O)C(=O)c1cccnc1 | > 100 µM | 
66 | NCCSC(c1ccccc1)c1ccccc1 | 43 µM | 
67 | CCCCCCCCC/C=C/C=C/C(=O)NCC(=O)NC1C(O)C(O)C(Nc2ncnc3nc[nH]c23)OC1C(O)CO (stereo not drawn) |  | 0.765 µM
68 | COc1nc(C#CC2(O)CCCCC2)nc(OC)n1 | 17.4 µM | 
69 | C[C@H](CCC(=O)O)[C@H]1CC[C@@]2(C)[C@@H]3C(=O)C[C@H]4C(C)(C)[C@@H](O)CC[C@]4(C)[C@H]3C(=O)C[C@]12C | > 100 µM | 
